US20220220128A1, “HETEROCYCLIC COMPOUNDS AS KINASE INHIBITORS, COMPOSITIONS COMPRISING THE HETEROCYCLIC COMPOUND, AND METHODS OF USE THEREOF” (JS Innopharm (Shanghai) Ltd, priority 2019, published 2022)
Like-named read-outs stand apart in the source and are kept apart here.

Key:
human RET kinase = target: T1, human RET kinase (Homo sapiens, UniProt P07949); assay: RET Kinase Assay (LanthaScreen TR-FRET enzymatic assay); format: biochemical; details: 7 nM RET, 23 μM ATP
T1 construct: purchased Carna 08-159
T1 sequence (P07949 29-1114): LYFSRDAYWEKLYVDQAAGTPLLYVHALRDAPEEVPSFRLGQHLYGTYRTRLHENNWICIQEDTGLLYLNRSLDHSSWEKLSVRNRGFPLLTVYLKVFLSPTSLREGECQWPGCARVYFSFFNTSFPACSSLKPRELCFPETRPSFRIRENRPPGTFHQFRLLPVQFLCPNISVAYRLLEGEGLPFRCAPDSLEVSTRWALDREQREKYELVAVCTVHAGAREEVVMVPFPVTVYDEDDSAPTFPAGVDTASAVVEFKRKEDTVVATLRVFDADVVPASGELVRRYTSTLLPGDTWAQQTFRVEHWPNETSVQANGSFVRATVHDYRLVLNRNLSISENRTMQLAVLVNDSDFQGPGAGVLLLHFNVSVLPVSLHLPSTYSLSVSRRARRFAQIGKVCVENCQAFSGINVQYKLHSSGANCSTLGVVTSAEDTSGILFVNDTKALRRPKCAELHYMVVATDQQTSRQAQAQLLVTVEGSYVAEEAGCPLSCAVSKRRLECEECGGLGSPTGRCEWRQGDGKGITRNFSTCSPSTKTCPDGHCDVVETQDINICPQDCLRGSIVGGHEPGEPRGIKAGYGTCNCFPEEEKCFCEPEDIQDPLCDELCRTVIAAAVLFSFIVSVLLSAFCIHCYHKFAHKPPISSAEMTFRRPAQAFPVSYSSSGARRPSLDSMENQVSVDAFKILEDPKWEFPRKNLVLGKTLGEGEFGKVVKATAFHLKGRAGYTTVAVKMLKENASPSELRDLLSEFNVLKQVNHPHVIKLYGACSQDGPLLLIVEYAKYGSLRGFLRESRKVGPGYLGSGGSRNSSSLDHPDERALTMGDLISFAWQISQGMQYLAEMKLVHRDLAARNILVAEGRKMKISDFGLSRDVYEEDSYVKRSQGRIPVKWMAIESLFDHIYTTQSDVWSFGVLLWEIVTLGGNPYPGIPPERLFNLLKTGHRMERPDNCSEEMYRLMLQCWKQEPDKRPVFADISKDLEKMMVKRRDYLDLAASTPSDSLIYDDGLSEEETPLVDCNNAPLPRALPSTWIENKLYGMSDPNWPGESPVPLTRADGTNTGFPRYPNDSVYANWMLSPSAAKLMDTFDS
Outline: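 TR-FRET enzymatic read-out using 23 μM ATP, 3 μM FAM-P2 substrate and 7 nM human RET, after 15-min compound pretreatment at room temperature and a 1 h reaction at 28° C in HEPES pH 7.5 buffer. Percent of DMSO control fitted to nonlinear sigmoid curves for IC50.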

human KDR kinase = target: T2, human KDR kinase (Homo sapiens, UniProt P35968); assay: KDR Kinase Assay (LanthaScreen TR-FRET enzymatic assay); format: biochemical; details: 1.2 nM KDR, 92 μM ATP
T2 construct: purchased Carna 08-191
T2 sequence (P35968 20-1356): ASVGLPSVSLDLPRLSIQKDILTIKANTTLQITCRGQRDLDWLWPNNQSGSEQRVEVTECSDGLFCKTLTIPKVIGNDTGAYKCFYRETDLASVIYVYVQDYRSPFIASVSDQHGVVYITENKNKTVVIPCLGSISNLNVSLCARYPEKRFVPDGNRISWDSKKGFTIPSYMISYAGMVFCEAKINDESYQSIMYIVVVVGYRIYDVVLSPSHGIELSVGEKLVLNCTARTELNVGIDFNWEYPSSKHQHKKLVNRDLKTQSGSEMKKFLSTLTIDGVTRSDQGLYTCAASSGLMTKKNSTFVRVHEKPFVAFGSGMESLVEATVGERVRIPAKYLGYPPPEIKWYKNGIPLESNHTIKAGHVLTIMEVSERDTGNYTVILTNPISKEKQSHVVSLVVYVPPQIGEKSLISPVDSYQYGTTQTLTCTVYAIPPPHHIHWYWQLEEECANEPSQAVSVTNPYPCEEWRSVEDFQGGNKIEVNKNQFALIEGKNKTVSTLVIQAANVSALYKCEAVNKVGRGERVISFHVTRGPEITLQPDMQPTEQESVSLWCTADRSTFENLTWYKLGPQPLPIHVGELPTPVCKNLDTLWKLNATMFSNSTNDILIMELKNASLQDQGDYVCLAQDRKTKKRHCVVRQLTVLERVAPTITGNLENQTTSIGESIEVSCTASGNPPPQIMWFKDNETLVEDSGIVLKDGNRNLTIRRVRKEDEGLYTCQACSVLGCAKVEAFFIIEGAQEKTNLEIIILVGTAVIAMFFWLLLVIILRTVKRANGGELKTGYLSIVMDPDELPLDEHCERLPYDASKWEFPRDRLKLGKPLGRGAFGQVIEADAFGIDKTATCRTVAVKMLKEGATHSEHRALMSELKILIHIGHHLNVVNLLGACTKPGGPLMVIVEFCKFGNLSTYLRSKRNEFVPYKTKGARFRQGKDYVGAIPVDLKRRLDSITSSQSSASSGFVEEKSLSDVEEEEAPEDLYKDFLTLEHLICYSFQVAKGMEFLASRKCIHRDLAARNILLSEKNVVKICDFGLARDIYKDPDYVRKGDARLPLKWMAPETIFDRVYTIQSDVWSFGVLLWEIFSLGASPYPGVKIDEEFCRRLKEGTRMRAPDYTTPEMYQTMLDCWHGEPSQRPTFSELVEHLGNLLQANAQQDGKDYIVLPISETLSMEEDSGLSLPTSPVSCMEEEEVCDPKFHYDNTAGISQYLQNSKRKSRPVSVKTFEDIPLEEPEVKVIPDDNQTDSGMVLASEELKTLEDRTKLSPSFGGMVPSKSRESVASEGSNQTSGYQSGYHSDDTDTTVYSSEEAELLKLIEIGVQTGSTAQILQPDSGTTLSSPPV
Outline: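 TR-FRET enzymatic format: after 15-min room-temperature compound pretreatment, 1.2 nM human KDR phosphorylated 3 μM FAM-P22 with 92 μM ATP (HEPES pH 7.5, 28° C., one hour). Reactions were quenched with EDTA buffer. IC50 came from nonlinear sigmoid fits of percent-of-vehicle signal ratios.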

TT cells = assay: TT Cell Proliferation Assay (WST-8, 8 days); format: cell-based; details: Homo sapiens, 192 h, growth inhibition in TT cells, read-out: TT Cellular Activity
Outline: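 IC50 was derived from absorbance at 450 nm after 5 h with WST-8, following 8 days' incubation at 37 °C. Final compound levels spanned 0.0005–5 μM in 0.5% DMSO. TT cells were seeded at 6,000 per well in 10% FBS RPMI-1640 and left to attach for 24 h beforehand.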

BAF3-KIF5B-RET cells = target: T3, BAF3-KIF5B-RET cells (Homo sapiens, UniProt P07949); assay: BAF3-KIF5B-RET Cell proliferation assay (CellTiter-Glo, 72 hours); format: cell-based; details: growth inhibition, read-out: BA/F3-KIF5B-RET Cellular activity
T3 construct: fused on or other part: P33176 (Kinesin-1 heavy chain)
T3 sequence (P07949 whole entry, change not shown, the tested form may be a part): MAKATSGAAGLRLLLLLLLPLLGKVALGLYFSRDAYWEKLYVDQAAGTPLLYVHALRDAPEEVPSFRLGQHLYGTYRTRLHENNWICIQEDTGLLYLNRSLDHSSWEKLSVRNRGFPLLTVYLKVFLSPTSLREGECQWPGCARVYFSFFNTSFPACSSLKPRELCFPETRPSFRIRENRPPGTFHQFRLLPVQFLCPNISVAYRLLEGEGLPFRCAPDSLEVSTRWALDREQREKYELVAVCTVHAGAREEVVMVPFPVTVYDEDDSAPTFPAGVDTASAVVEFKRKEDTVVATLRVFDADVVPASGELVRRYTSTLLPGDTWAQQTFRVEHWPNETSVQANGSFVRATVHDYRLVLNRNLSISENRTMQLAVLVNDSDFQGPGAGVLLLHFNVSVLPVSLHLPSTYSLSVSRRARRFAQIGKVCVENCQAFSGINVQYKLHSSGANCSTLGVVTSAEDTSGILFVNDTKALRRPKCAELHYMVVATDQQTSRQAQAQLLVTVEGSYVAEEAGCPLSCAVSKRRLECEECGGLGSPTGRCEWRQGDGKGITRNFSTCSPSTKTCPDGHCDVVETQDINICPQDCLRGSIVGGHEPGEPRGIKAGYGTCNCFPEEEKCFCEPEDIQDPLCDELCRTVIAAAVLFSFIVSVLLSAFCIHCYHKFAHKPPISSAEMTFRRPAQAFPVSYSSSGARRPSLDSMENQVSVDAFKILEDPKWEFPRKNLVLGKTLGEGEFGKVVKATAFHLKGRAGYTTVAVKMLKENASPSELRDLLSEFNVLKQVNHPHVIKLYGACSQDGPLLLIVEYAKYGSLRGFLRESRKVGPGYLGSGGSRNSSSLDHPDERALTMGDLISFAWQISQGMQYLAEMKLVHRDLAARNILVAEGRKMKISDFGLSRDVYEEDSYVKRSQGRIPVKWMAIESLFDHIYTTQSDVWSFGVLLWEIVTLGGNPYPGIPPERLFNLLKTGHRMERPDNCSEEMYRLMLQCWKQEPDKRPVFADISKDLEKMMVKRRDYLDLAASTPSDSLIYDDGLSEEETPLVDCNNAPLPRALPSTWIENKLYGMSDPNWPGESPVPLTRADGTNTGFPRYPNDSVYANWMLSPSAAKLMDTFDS
Outline: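 Cells seeded at 2,000/well in RPMI-1640 with 10% FBS and left 24 h at 37 °C, then exposed 72 h to nine compound levels (final 1 μM down to 0.00015 μM, 0.1% DMSO). CellTiter-Glo luminescence gave viability versus DMSO wells, from which IC50 was fitted.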

Row | SMILES | IC50 (human RET kinase) [µM] | IC50 (human KDR kinase) [µM] | IC50 (TT cells; TT) [µM] | GI50 (BAF3-KIF5B-RET cells) [µM] | IC50 (TT cells) [µM]
1 | Cn1ccc(-c2cc(-c3ccc(N4C[C@@H]5C[C@@](C)(NC(=O)c6ncccc6Cl)C[C@@H]5C4)nc3)c3c(C#N)cnn3c2)n1 [Example 56, 3-chloro-N-((3aR,5s,6aS)-2-(5-(3-cyano-6-(1-methyl-1H-pyrazol-3-yl)pyrazolo[1,5-a]pyridin-4-yl)pyridin-2-yl)-5-methyloctahydro-cyclopenta[c]pyrrol-5-yl)picolinamide] | ≤ 0.01 | 0.01 to 0.05 | ≤ 0.01 | ≤ 0.01 | –
2 | CC(=O)NC12CC3CC(C1)N(c1ccc(-c4cc(-c5cnn(C)c5)cn5ncc(C#N)c45)cn1)C(C3)C2 [Example 97, N-((1R,3S,5s,7s)-2-(5-(3-cyano-6-(1-methyl-1H-pyrazol-4-yl)pyrazolo[1,5-a]pyridin-4-yl)pyridin-2-yl)-2-azaadamantan-5-yl)acetamide] | ≤ 0.01 | ≤ 0.01 | ≤ 0.01 | ≤ 0.01 | –
3 | Cn1ccc(-c2cc(-c3cnc(N4C[C@@H]5C[C@@](C)(NC(=O)c6ncccc6Cl)C[C@@H]5C4)cn3)c3c(C#N)cnn3c2)n1 [Example 70, 3-chloro-N-((3aR,5s,6aS)-2-(5-(3-cyano-6-(1-methyl-1H-pyrazol-3-yl)pyrazolo[1,5-a]pyridin-4-yl)pyrazin-2-yl)-5-methyloctahydrocyclopenta[c]pyrrol-5-yl)picolinamide] | ≤ 0.01 | 0.01 to 0.05 | 0.01 to 0.05 | ≤ 0.01 | –
4 | Cn1cc(-c2cc(-c3ccc(N4C[C@@H]5CN(S(=O)(=O)c6c(F)cccc6Cl)C[C@@H]5C4)nc3)c3c(C#N)cnn3c2)cn1 [Example 11, 4-(6-((3aR,6aS)-5-(2-chloro-6-fluorophenylsulfonyl)hexahydropyrrolo[3,4-c]pyrrol-2(1H)-yl)pyridin-3-yl)-6-(1-methyl-1H-pyrazol-4-yl)pyrazolo[1,5-a]pyridine-3-carbonitrile] | ≤ 0.01 | ≤ 0.01 | ≤ 0.01 | ≤ 0.01 | –
5 | COc1ccc(CN2C[C@@H]3CN(c4ccc(-c5cc(-c6cnn(C)c6)cn6ncc(C#N)c56)cn4)C[C@@H]3C2)cn1 [Example 12, 4-(6-((3aR,6aS)-5-((6-methoxypyridin-3-yl)methyl)hexahydropyrrolo[3,4-c]pyrrol-2(1H)-yl)pyridin-3-yl)-6-(1-methyl-1H-pyrazol-4-yl)pyrazolo[1,5-a]pyridine-3-carbonitrile] | ≤ 0.01 | 0.01 to 0.05 | – | ≤ 0.01 | 0.01 to 0.05
6 | CC(C)(O)COc1cc(-c2ccc(N3C[C@@H]4C[C@@](C)(NC(=O)c5ncccc5Cl)C[C@@H]4C3)nc2)c2c(C#N)cnn2c1 [Example 54, 3-chloro-N-((3aR,5s,6aS)-2-(5-(3-cyano-6-(2-hydroxy-2-methylpropoxy)pyrazolo[1,5-a]pyridin-4-yl)pyridin-2-yl)-5-methyloctahydro-cyclopenta[c]pyrrol-5-yl)picolinamide] | ≤ 0.01 | > 0.1 | 0.01 to 0.05 | 0.01 to 0.05 | –
7 | Cn1cc(-c2cc(-c3ccc(N4C[C@@H]5[C@H](C4)[C@H]5NS(=O)(=O)c4c(F)cccc4Cl)nc3)c3c(C#N)cnn3c2)cn1 [Example 46, 2-chloro-N-((1R,5S,6s)-3-(5-(3-cyano-6-(1-methyl-1H-pyrazol-4-yl)pyrazolo[1,5-a]pyridin-4-yl)pyridin-2-yl)-3-azabicyclo[3.1.0]hexan-6-yl)-6-fluorobenzene-sulfonamide] | ≤ 0.01 | ≤ 0.01 | ≤ 0.01 | ≤ 0.01 | –
8 | Cn1cc(-c2cc(-c3ccc(N4C[C@@H]5C[C@@](C)(NC(=O)c6ncccc6C#N)C[C@@H]5C4)nc3)c3c(C#N)cnn3c2)cn1 [Example 121, 3-cyano-N-((3aR,5s,6aS)-2-(5-(3-cyano-6-(1-methyl-1H-pyrazol-4-yl)pyrazolo[1,5-a]pyridin-4-yl)pyridin-2-yl)-5-methyloctahydrocyclopenta[c]pyrrol-5-yl)picolinamide] | ≤ 0.01 | ≤ 0.01 | ≤ 0.01 | ≤ 0.01 | –
9 | CCOc1cc(-c2ccc(N3C4CC5CC3CC(NC(=O)c3ncccc3Cl)(C5)C4)nc2)c2c(C#N)cnn2c1 [Example 136, 3-chloro-N-((1R,3S,5s,7s)-2-(5-(3-cyano-6-ethoxypyrazolo[1,5-a]pyridin-4-yl)pyridin-2-yl)-2-azaadamantan-5-yl)picolinamide] | ≤ 0.01 | 0.01 to 0.05 | ≤ 0.01 | ≤ 0.01 | –
10 | Cn1cc(-c2cc(-c3ccc(N4C5CC6CC4CC(NC(=O)OC(C)(C)C)(C6)C5)nc3)c3c(C#N)cnn3c2)cn1 [Example 180] | ≤ 0.01 | ≤ 0.01 | ≤ 0.01 | ≤ 0.01 | –
11 | CC(C)(O)COc1cc(-c2ccc(N3C[C@H]4CN(C(=O)c5ncccc5Cl)C[C@H]4C3)nc2)c2c(C#N)cnn2c1 [Example 7, 4-(6-((3aR,6aS)-5-(3-chloropicolinoyl)hexahydropyrrolo[3,4-c]pyrrol-2(1H)-yl)pyridin-3-yl)-6-(2-hydroxy-2-methylpropoxy)pyrazolo[1,5-a]pyridine-3-carbonitrile] | ≤ 0.01 | > 0.1 | ≤ 0.01 | 0.05 to 0.1 | –
12 | Cn1cc(-c2cc(-c3ccc(N4C5CC6CC4CC(N)(C6)C5)nc3)c3c(C#N)cnn3c2)cn1 [Example 181, 4-(6-((1R,3S,5s,7s)-5-amino-2-azaadamantan-2-yl)pyridin-3-yl)-6-(1-methyl-1H-pyrazol-4-yl)pyrazolo[1,5-a]pyridine-3-carbonitrile] | ≤ 0.01 | ≤ 0.01 | ≤ 0.01 | 0.01 to 0.05 | –
13 | CC(C)(O)COc1cc(-c2ccc(N3C[C@@H]4[C@H](C3)[C@H]4NC(=O)c3ncccc3Cl)nc2)c2c(C#N)cnn2c1 [Example 37, 3-chloro-N-((1R,5S,6s)-3-(5-(3-cyano-6-(2-hydroxy-2-methylpropoxy)pyrazolo[1,5-a]pyridin-4-yl)pyridin-2-yl)-3-azabicyclo[3.1.0]hexan-6-yl)picolinamide] | ≤ 0.01 | > 0.1 | 0.05 to 0.1 | > 0.1 | –
14 | Cn1cc(-c2cc(-c3ccc(N4C[C@H]5CN(C(=O)c6c(F)cccc6Cl)C[C@H]5C4)nc3)c3c(C#N)cnn3c2)cn1 [Example 5, 4-(6-((3aR,6aS)-5-(2-chloro-6-fluorobenzoyl)hexahydropyrrolo[3,4-c]pyrrol-2(1H)-yl)pyridin-3-yl)-6-(1-methyl-1H-pyrazol-4-yl)pyrazolo[1,5-a]pyridine-3-carbonitrile] | ≤ 0.01 | ≤ 0.01 | ≤ 0.01 | ≤ 0.01 | –
15 | Cn1cc(-c2cc(-c3ccc(N4C5CC6CC4CC(C(=O)Nc4ncccc4Cl)(C6)C5)nc3)c3c(C#N)cnn3c2)cn1 [Example 90, (1R,3S,5s,7s)-N-(3-chloropyridin-2-yl)-2-(5-(3-cyano-6-(1-methyl-1H-pyrazol-4-yl)pyrazolo[1,5-a]pyridin-4-yl)pyridin-2-yl)-2-azaadamantane-5-carboxamide] | ≤ 0.01 | ≤ 0.01 | ≤ 0.01 | ≤ 0.01 | –
16 | Cn1cc(-c2cc(-c3ccc(N4C[C@H]5CN(C(=O)c6ncccc6Cl)C[C@H]5C4)nc3)c3c(C#N)cnn3c2)cn1 [Example 4, 4-(6-((3aR,6aS)-5-(3-chloropicolinoyl)hexahydropyrrolo[3,4-c]pyrrol-2(1H)-yl)pyridin-3-yl)-6-(1-methyl-1H-pyrazol-4-yl)pyrazolo[1,5-a]pyridine-3-carbonitrile] | ≤ 0.01 | 0.01 to 0.05 | ≤ 0.01 | ≤ 0.01 | –
17 | CC(C)(O)COc1cc(-c2ccc(N3C[C@H]4CN(C(=O)c5c(F)cccc5Cl)C[C@H]4C3)nc2)c2c(C#N)cnn2c1 [Example 9, 4-(6-((3aR,6aS)-5-(2-chloro-6-fluorobenzoyl)hexahydropyrrolo[3,4-c]pyrrol-2(1H)-yl)pyridin-3-yl)-6-(2-hydroxy-2-methylpropoxy)pyrazolo[1,5-a]pyridine-3-carbonitrile] | ≤ 0.01 | 0.05 to 0.1 | ≤ 0.01 | 0.01 to 0.05 | –
18 | C[C@@]1(NC(=O)c2ncccc2Cl)C[C@H]2CN(c3ccc(-c4cc(OCC5CNCCO5)cn5ncc(C#N)c45)cn3)C[C@H]2C1 (stereo partly shown) [Example 53] | ≤ 0.01 | 0.01 to 0.05 | ≤ 0.01 | ≤ 0.01 | –
19 | Cn1cc(-c2cc(-c3ccc(N4C[C@@H]5[C@@H](CNC(=O)c6ncccc6Cl)[C@@H]5C4)nc3)c3c(C#N)cnn3c2)cn1 [Example 73, 3-chloro-N-(((1R,5S,6s)-3-(5-(3-cyano-6-(1-methyl-1H-pyrazol-4-yl)pyrazolo[1,5-a]pyridin-4-yl)pyridin-2-yl)-3-azabicyclo[3.1.0]hexan-6-yl)methyl)picolinamide] | ≤ 0.01 | ≤ 0.01 | ≤ 0.01 | ≤ 0.01 | –
